Laboratory results as given in patent publication US8785608B2, “Crystalline heteroaromatic fluoroglycoside hydrates, pharmaceuticals comprising these compounds and their use” (Sanofi, priority 2009, dated 2014).

How the values were obtained:
Assay type in all cases: physicochemical
[1] = Long term storage stability in glass vials (chemical stability); conditions: for Puirity (area %) / Total increase (area %): +40° C.
Excerpt: The following tables 2 and 3 show data for the storage stability of crystalline compound of formula I in comparison to amorphous material of formula II. Samples of the compounds of formula I and II were packed into glass vials. Chemical stability was monitored over a period up 28 days under different conditions as indicated at each table.

[2] = Water vapour sorption (DVS), hygroscopicity; conditions: 80% r.h. (25° C.)
Description: The water sorption experiments were performed with a SPS11-10μ (Projekt Messtechnik). Open aluminium pans were used and the measurements were performed at 25° C. The measured data was evaluated via the software Excel (Microsoft).

[3] = Humidity-resolved XRPD in humidity chamber (phase transitions); conditions: 25° C.
Description: The samples were subjected to a pre-defined humidity program lasting 48 hours in an SMS VGI-2000 chamber at a constant temperature of 25° C. XRPD patterns were collected continuously with a data collection time of between 6 and 11 min. (The amorphous sample was treated with the humidity-program reversed: first rising the humidity to 95%, then lowering it to 0% and rising to 95% again.).

[4] = open glass vials, 75% relative humidity, 7 d
[5] = open glass vials, 75% relative humidity, 14 d
[6] = open glass vials, 75% relative humidity, 28 d
[7] = open glass vials, 75% relative humidity, Initial

SMILES: CC(C)c1[nH]nc(O[C@@H]2O[C@H](CO)[C@@H](F)[C@H](O)[C@H]2O)c1Cc1ccc(CCCC(=O)NC(CO)(CO)CO)cc1 [Amorphous sample, 4-{4-[3-((2S,3R,4R,5S,6R)-5-Fluoro-3,4-dihydroxy-6-hydroxymethyl-tetrahydro-pyran-2-yloxy)-5-isopropyl-1H-pyrazol-4-ylmethyl]-phenyl}-N-(2-hydroxy-1,1-bis-hydroxymethyl-ethyl)-butyramide, reference compound]
- Puirity (area %) ([1]; closed glass vials, 7 d): 96.5 area %
- Total increase (area %) ([1]; closed glass vials, 7 d): 0.5 area %
- Puirity (area %) ([1]; closed glass vials, 14 d): 96.1 area %
- Total increase (area %) ([1]; closed glass vials, 14 d): 0.9 area %
- Puirity (area %) ([1]; closed glass vials, 28 d): 95.6 area %
- Total increase (area %) ([1]; closed glass vials, 28 d): 1.4 area %
- Puirity (area %) ([1]; closed glass vials, Initial): 97.0 area %
- Puirity (area %) [1, 4]: 96.2 area %
- Total increase (area %) [1, 4]: 0.5 area %
- Puirity (area %) [1, 5]: 95.9 area %
- Total increase (area %) [1, 5]: 1.1 area %
- Puirity (area %) [1, 6]: 95.5 area %
- Total increase (area %) [1, 6]: 1.5 area %
- Puirity (area %) [1, 7]: 97.0 area %

SMILES: CC(C)c1[nH]nc(O[C@@H]2O[C@H](CO)[C@@H](F)[C@H](O)[C@H]2O)c1Cc1ccc(CCCC(=O)NC(CO)(CO)CO)cc1 [Crystalline hydrate I]
- chemical stability during storage ([1]; 40° C. under dry conditions (closed vials) and 75% r.h): better chemical stability
- Puirity (area %) ([1]; closed glass vials, 7 d): 97.2 area %
- Total increase (area %) ([1]; closed glass vials, 7 d): 0.3 area %
- Puirity (area %) ([1]; closed glass vials, 14 d): 97.1 area %
- Total increase (area %) ([1]; closed glass vials, 14 d): 0.4 area %
- Puirity (area %) ([1]; closed glass vials, 28 d): 97.0 area %
- Total increase (area %) ([1]; closed glass vials, 28 d): 0.5 area %
- Puirity (area %) ([1]; closed glass vials, Initial): 97.5 area %
- Puirity (area %) [1, 4]: 97.3 area %
- Total increase (area %) [1, 4]: ≦0.2 area %
- Puirity (area %) [1, 5]: 97.3 area %
- Total increase (area %) [1, 5]: ≦0.2 area %
- Puirity (area %) [1, 6]: 97.3 area %
- Total increase (area %) [1, 6]: ≦0.2 area %
- Puirity (area %) [1, 7]: 97.3 area %
- hygroscopicity compared to the amorphous form [2]: less hygroscopic
- relative humidity at which starting phase B transformed to phase C ([3]; humidity lowered): about 2%
- relative humidity at which phase D transformed back into the starting phase ([3]; humidity raised): around 20 % rel. hum.
- relative humidity at which intermediate phase D formed ([3]; humidity raised again): about 10%
